Assay results published in patent EP4810061A1, “DEUTERATED CAMPTOTHECIN COMPOUND, AND PREPARATION AND USE THEREOF” (Shanghai Qilu Pharmaceutical Research and Development …, priority 2023, dated 2025).

Columns and labels:
[1] = In vitro plasma stability of payload compounds; type: in vitro ADME, CD1 mouse; details: 5 µM, 37°C
Protocol: (§1) 398 µL of plasma was taken and preheated to 37°C, then co-incubated for 15 minutes. 2 µL of the sample solution was added to the plasma to prepare a final sample concentration of 5 µM. The above solution was co-incubated at 37°C, and 50 µL aliquots were taken at 0, 15, 30, 60, and 120 minutes, followed by the addition of 450 µL of ice-cold acetonitrile (containing the internal standard). The solution was vortexed for 10 minutes, centrifuged, and the remaining content of the parent substrate was detected by the LC-MS/MS method. For specific results, refer to Table 4-1. Table 4-1. Plasma stability of the payload compounds of the present disclosure

[2] = In vitro plasma stability of payload compounds; type: in vitro ADME, Human; details: 5 µM, 37°C
Protocol: as §1

[3] = Repeated dose toxicity experiment of payload compounds in rats; type: in vivo, SD rats; details: for Body weight and food consumption: 0.3 mg/kg and 1.0 mg/kg, 7 consecutive days; for rats died during recovery (of the animals with ataxia) / animals showed immediate ataxia after administration: tail vein injection for 7 consecutive days; for animals showed immediate ataxia after administration: main experimental group + TK group
Protocol: Test sample preparation: The test sample was weighed according to the predetermined weight into a glass vial. First, 1 mL of DMSO was added and mixed until the test sample was dissolved, followed by the addition of 1 mL of Solutol HS-15. After mixing thoroughly, 8 mL of sodium chloride injection was added and vortex-mixed to obtain a clear and transparent solution.
SD rats (purchased from Beijing Vital River) were used as test animals. […] During the acclimation period, one cage-side observation was conducted daily; during the dosing period, all animals were subjected to clinical observations twice daily (morning and afternoon). Reactions in various aspects, including the skin, fur, eyes (sclera), ears, nose, oral cavity, chest, abdomen, urogenital area, limbs, as well as respiration, movement, urination, defecation (including urine and feces color), and behavioral changes, were recorded. Daily weight data of the main test group animals were documented. For animals scheduled for dissection, terminal body weight (fasted) was measured prior to dissection. The food intake of the test animals was also recorded. Table 6-1. Results of repeated dose toxicity experiments of the payload compounds of the present disclosure in rats
At the end of the administration, gross dissection was performed on D8 after the administration.

Row | SMILES | Residual content of parent payload at 120 minutes (relative to 0 minutes) CD1 mouse plasma [1] [%] | Residual content of parent payload at 120 minutes (relative to 0 minutes) Human plasma [2] [%] | Body weight and food consumption [3] | rats died during recovery (of the animals with ataxia) ([3]; 0.3 mpk dose group) [%] | animals showed immediate ataxia after administration ([3]; 0.3 mpk dose group) | rats died during recovery (of the animals with ataxia) ([3]; 1 mpk dose group) [%] | animals showed immediate ataxia after administration ([3]; 1 mpk dose group) | average food consumption ([3]; ♀ rats, at the same dose, versus control (Dxd) group)
1 | [2H]C1([2H])OC(=O)[C@](O)(CC)c2cc3n(c(=O)c21)Cc1c-3nc2cc(F)c(C)c3c2c1[C@@H](NC(=O)C[C@H](C)O)CC3 [Compound 6] | 105.93 | 94.89 |  |  |  |  |  | 
2 | [2H]C1([2H])OC(=O)[C@](O)(CC)c2cc3n(c(=O)c21)Cc1c-3nc2cc(F)c(C)c3c2c1[C@@H](NC(=O)[C@H](O)C1CC1)CC3 [Compound 3] | 104.97 | 105.54 |  |  |  |  |  | 
3 | CC[C@@]1(O)C(=O)OCc2c1cc1n(c2=O)Cc2c-1nc1cc(F)c(C)c3c1c2[C@@H](NC(=O)CO)CC3 [Dxd] | 95.42 | 87.57 | Slow/decreased body weight gain; decreased food consumption; | 40 | 31% | 40 | 31% | 
4 | [2H]C1([2H])OC(=O)[C@](O)(CC)c2cc3n(c(=O)c21)Cc1c-3nc2cc(F)c(C)c3c2c1[C@@H](NC(=O)C[C@@H](C)O)CC3 [Compound 5] | 96.02 | 107.73 |  |  |  |  |  | 
5 | [2H]C1([2H])OC(=O)[C@](O)(CC)c2cc3n(c(=O)c21)Cc1c-3nc2cc(F)c(C)c3c2c1[C@@H](NC(=O)CO)CC3 [Compound 2] | 102.54 | 111.04 | At the same dose, the effects of compound 2 and Dxd on rat body weight and food consumption were essentially comparable; |  | compound 2: 0.3 mpk dose group: 13% (2/16) of animals showed immediate ataxia after administration, followed by gradual recovery; |  | compound 2: 1 mpk dose group: 25% (4/16) of animals showed immediate ataxia after administration, followed by gradual recovery; | for ♀ rats, at the same dose, the average food consumption of the compound 2 group was higher than that of the control group;
